Test results as given in the OligoGym collection.
Bases are written 5' to 3'; sugars and linkages follow in the same order, as letters with counts (s phosphorothioate, o phosphodiester; PS: all linkages phosphorothioate). C may stand for cytosine or 5-methylcytosine; the collection does not tell. l = locked nucleic acid (LNA); d = 2'-deoxy (DNA)

Target: HIF1A
Experiment: HeLa, 100 nM transfected, 24 h, mean of 3
Settings: ASO

Sequence	caspase activation (% of PBS control)
GGCAAGCATCCTG (sugars l1 d9 l3, PS)	468
GGCAAGCATCCTG (sugars l1 d10 l2, PS)	394
GGCAAGCATCCTG (sugars l1 d11 l1, PS)	316
GGCAAGCATCCTG (sugars l2 d1 l1 d6 l3, PS)	502
GGCAAGCATCCTG (sugars l2 d1 l1 d7 l2, PS)	560
GGCAAGCATCCTG (sugars l2 d1 l1 d8 l1, PS)	359
GGCAAGCATCCTG (sugars l2 d8 l1 d1 l1, PS)	327
GGCAAGCATCCTG (sugars l2 d8 l3, PS)	657
GGCAAGCATCCTG (sugars l2 d9 l2, PS)	554
GGCAAGCATCCTG (sugars l2 d10 l1, PS)	291
GGCAAGCATCCTG (sugars l3 d7 l1 d1 l1, PS)	632
GGCAAGCATCCTG (sugars l3 d7 l3, PS)	632
GGCAAGCATCCTG (sugars l3 d8 l2, PS)	642
GGCAAGCATCCTG (sugars l3 d9 l1, PS)	496
GGCAAGCATCCTG (sugars l4 d6 l1 d1 l1, PS)	607
GGCAAGCATCCTG (sugars l4 d6 l3, PS)	618
GGCAAGCATCCTG (sugars l4 d7 l2, PS)	528
GGCAAGCATCCTG (sugars l4 d8 l1, PS)	604
GGCAAGCATCCTG (sugars lddlddddddldl, PS)	198
GGCAAGCATCCTG (sugars ldldddddddldl, PS)	344
GGCAAGCATCCTG (sugars ldllddddddldl, PS)	370
GGCAAGCATCCTG (sugars lldlddddddldl, PS)	334
GTTACTGCCTTCT (sugars l1 d1 l1 d7 l3, PS)	170
GTTACTGCCTTCT (sugars l1 d1 l1 d8 l2, PS)	123
GTTACTGCCTTCT (sugars l1 d1 l1 d9 l1, PS)	117
GTTACTGCCTTCT (sugars l1 d1 l2 d6 l3, PS)	239

Sequence	caspase activation (% of PBS control)
GTTACTGCCTTCT (sugars l1 d1 l2 d7 l2, PS)	154
GTTACTGCCTTCT (sugars l1 d1 l2 d8 l1, PS)	136
GTTACTGCCTTCT (sugars l1 d2 l1 d6 l3, PS)	134
GTTACTGCCTTCT (sugars l1 d2 l1 d7 l2, PS)	136
GTTACTGCCTTCT (sugars l1 d2 l1 d8 l1, PS)	110
GTTACTGCCTTCT (sugars l1 d9 l1 d1 l1, PS)	104
GTTACTGCCTTCT (sugars l1 d9 l3, PS)	171
GTTACTGCCTTCT (sugars l1 d10 l2, PS)	127
GTTACTGCCTTCT (sugars l1 d11 l1, PS)	112
GTTACTGCCTTCT (sugars l2 d1 l1 d6 l3, PS)	183
GTTACTGCCTTCT (sugars l2 d1 l1 d7 l2, PS)	134
GTTACTGCCTTCT (sugars l2 d1 l1 d8 l1, PS)	133
GTTACTGCCTTCT (sugars l2 d8 l1 d1 l1, PS)	98.3
GTTACTGCCTTCT (sugars l2 d8 l3, PS)	168
GTTACTGCCTTCT (sugars l2 d9 l2, PS)	114
GTTACTGCCTTCT (sugars l2 d10 l1, PS)	109
GTTACTGCCTTCT (sugars l3 d7 l1 d1 l1, PS)	161
GTTACTGCCTTCT (sugars l3 d7 l3, PS)	267
GTTACTGCCTTCT (sugars l3 d8 l2, PS)	164
GTTACTGCCTTCT (sugars l3 d9 l1, PS)	138
GTTACTGCCTTCT (sugars l4 d6 l1 d1 l1, PS)	221
GTTACTGCCTTCT (sugars l4 d6 l3, PS)	356
GTTACTGCCTTCT (sugars l4 d7 l2, PS)	196
GTTACTGCCTTCT (sugars l4 d8 l1, PS)	142
GTTACTGCCTTCT (sugars lddlddddddldl, PS)	110
GTTACTGCCTTCT (sugars ldldddddddldl, PS)	108

Sequence	caspase activation (% of PBS control)
GTTACTGCCTTCT (sugars ldllddddddldl, PS)	156
GTTACTGCCTTCT (sugars lldlddddddldl, PS)	105
GTTACTGCCTTCTTAC (sugars l1 d1 l1 d8 l5, PS)	298
GTTACTGCCTTCTTAC (sugars l1 d1 l1 d9 l4, PS)	147
GTTACTGCCTTCTTAC (sugars l1 d1 l1 d10 l3, PS)	109
GTTACTGCCTTCTTAC (sugars l1 d1 l1 d11 l2, PS)	97.8
GTTACTGCCTTCTTAC (sugars l1 d1 l1 d12 l1, PS)	103
GTTACTGCCTTCTTAC (sugars l1 d1 l2 d7 l5, PS)	361
GTTACTGCCTTCTTAC (sugars l1 d1 l2 d8 l4, PS)	200
GTTACTGCCTTCTTAC (sugars l1 d1 l2 d9 l3, PS)	141
GTTACTGCCTTCTTAC (sugars l1 d1 l2 d10 l2, PS)	130
GTTACTGCCTTCTTAC (sugars l1 d1 l2 d11 l1, PS)	156
GTTACTGCCTTCTTAC (sugars l1 d1 l3 d6 l5, PS)	616
GTTACTGCCTTCTTAC (sugars l1 d1 l3 d7 l4, PS)	465
GTTACTGCCTTCTTAC (sugars l1 d1 l3 d8 l3, PS)	463
GTTACTGCCTTCTTAC (sugars l1 d1 l3 d9 l2, PS)	292
GTTACTGCCTTCTTAC (sugars l1 d1 l3 d10 l1, PS)	323
GTTACTGCCTTCTTAC (sugars l1 d2 l1 d7 l5, PS)	268
GTTACTGCCTTCTTAC (sugars l1 d2 l1 d8 l4, PS)	175
GTTACTGCCTTCTTAC (sugars l1 d2 l1 d9 l3, PS)	131
GTTACTGCCTTCTTAC (sugars l1 d2 l1 d10 l2, PS)	93.2
GTTACTGCCTTCTTAC (sugars l1 d2 l1 d11 l1, PS)	91.7
GTTACTGCCTTCTTAC (sugars l1 d2 l2 d6 l5, PS)	485
GTTACTGCCTTCTTAC (sugars l1 d2 l2 d7 l4, PS)	361
GTTACTGCCTTCTTAC (sugars l1 d2 l2 d8 l3, PS)	248
GTTACTGCCTTCTTAC (sugars l1 d2 l2 d9 l2, PS)	149

Sequence	caspase activation (% of PBS control)
GTTACTGCCTTCTTAC (sugars l1 d2 l2 d10 l1, PS)	185
GTTACTGCCTTCTTAC (sugars l1 d3 l1 d6 l5, PS)	359
GTTACTGCCTTCTTAC (sugars l1 d3 l1 d7 l4, PS)	259
GTTACTGCCTTCTTAC (sugars l1 d3 l1 d8 l3, PS)	174
GTTACTGCCTTCTTAC (sugars l1 d3 l1 d9 l2, PS)	103
GTTACTGCCTTCTTAC (sugars l1 d3 l1 d10 l1, PS)	130
GTTACTGCCTTCTTAC (sugars l1 d10 l1 d1 l3, PS)	125
GTTACTGCCTTCTTAC (sugars l1 d10 l1 d2 l2, PS)	102
GTTACTGCCTTCTTAC (sugars l1 d10 l1 d3 l1, PS)	127
GTTACTGCCTTCTTAC (sugars l1 d10 l2 d1 l2, PS)	136
GTTACTGCCTTCTTAC (sugars l1 d10 l2 d2 l1, PS)	134
GTTACTGCCTTCTTAC (sugars l1 d10 l3 d1 l1, PS)	261
GTTACTGCCTTCTTAC (sugars l1 d10 l5, PS)	350
GTTACTGCCTTCTTAC (sugars l1 d11 l1 d1 l2, PS)	117
GTTACTGCCTTCTTAC (sugars l1 d11 l1 d2 l1, PS)	115
GTTACTGCCTTCTTAC (sugars l1 d11 l2 d1 l1, PS)	137
GTTACTGCCTTCTTAC (sugars l1 d11 l4, PS)	125
GTTACTGCCTTCTTAC (sugars l1 d12 l1 d1 l1, PS)	103
GTTACTGCCTTCTTAC (sugars l1 d12 l3, PS)	100
GTTACTGCCTTCTTAC (sugars l1 d13 l2, PS)	87.3
GTTACTGCCTTCTTAC (sugars l1 d14 l1, PS)	102
GTTACTGCCTTCTTAC (sugars l2 d1 l1 d7 l5, PS)	335
GTTACTGCCTTCTTAC (sugars l2 d1 l1 d8 l4, PS)	194
GTTACTGCCTTCTTAC (sugars l2 d1 l1 d9 l3, PS)	130
GTTACTGCCTTCTTAC (sugars l2 d1 l1 d10 l2, PS)	97.3
